In ChEMBL document CHEMBL5038674, “Structure-Activity Relationship of Anti-Mycobacterium abscessus Piperidine-4-carboxamides, a New Class of NBTI DNA Gyrase Inhibitors” (ACS Med Chem Lett, 2022):
≈ marks a conversion by molar mass, not a printed value. Calls of active or inactive are those of the source. The calls are words filed in the database; no cut-off is given here.

Experiments:
[1] = Inhibition of Mycobacterium abscessus DNA gyrase using pBR322 DNA as substrate […] by fluorescence based microplate reader assay; set-up: species or system Mycobacteroides abscessus
[2] = Antimycobacterial activity against Mycobacterium abscessus subsp. abscessus bamboo strain assessed as inhibition of mycobacterial growth incubated for 3 days by broth microdilution method; assay type: functional; conditions: Mycobacteroides abscessus, 72 h, time 3 day
[3] = Lipophilicity, logP of compound; assay type: physicochemical; conditions: octanol/water
A-375 = assay: Cytotoxicity against human A375 cells assessed as reduction in cell viability upto 30 uM after 24 hrs by SRB assay; assay type: functional, cell-based; conditions: dose microM <=30, time 24.0 hrs
HT-29 = assay: Cytotoxicity against human HT-29 cells assessed as reduction in cell viability upto 30 uM after 24 hrs by SRB assay; assay type: functional, cell-based; conditions: dose microM <=30, time 24.0 hrs
MCF7 = assay: Cytotoxicity against human MCF7 cells assessed as reduction in cell viability upto 30 uM after 24 hrs by SRB assay; assay type: functional, cell-based; conditions: dose microM <=30, time 24.0 hrs
FaDu = assay: Cytotoxicity against human FaDu cells assessed as reduction in cell viability upto 30 uM after 24 hrs by SRB assay; assay type: functional, cell-based; conditions: dose microM <=30, time 24.0 hrs
NIH3T3 = assay: Cytotoxicity against mouse NIH3T3 cells assessed as reduction in cell viability upto 30 uM after 24 hrs by SRB assay; assay type: toxicity, cell-based; conditions: nih3t3, 24 h
HEK293 = assay: Cytotoxicity against human HEK293 cells assessed as reduction in cell viability upto 30 uM after 24 hrs by SRB assay; assay type: toxicity, cell-based; conditions: hek293, 24 h
[4] = tested on: Mycobacteroides abscessus; assay: Antimycobacterial activity against Mycobacterium abscessus ATCC 19977 assessed as inhibition of mycobacterial growth incubated for 3 days by broth microdilution method; assay type: functional; conditions: ATCC 19977, 72 h, time 3 day
[5] = Antimycobacterial activity against Mycobacterium abscessus subsp. bolletii CCUG 50184T assessed as inhibition of mycobacterial growth incubated for 3 days by broth microdilution method; assay type: functional; conditions: Mycobacteroides abscessus, 72 h, time 3 day
[6] = Antimycobacterial activity against Mycobacterium abscessus subsp. massiliense CCUG 48898T assessed as inhibition of mycobacterial growth incubated for 3 days by broth microdilution method; assay type: functional; conditions: Mycobacteroides abscessus, 72 h, time 3 day
[7] = tested on: Mycobacteroides abscessus; assay: Antimycobacterial activity against Mycobacterium abscessus K21 assessed as inhibition of mycobacterial growth incubated for 3 days by broth microdilution method; assay type: functional; conditions: K21, 72 h, time 3 day
Mycobacterium avium = assay: Antimycobacterial activity against Mycobacterium avium 11 assessed as inhibition of mycobacterial growth incubated for 3 days by broth microdilution method; assay type: functional; conditions: Mycobacterium avium, 11, 72 h; time 3 day
Staphylococcus aureus = assay: Antibacterial activity against Staphylococcus aureus assessed as inhibition of bacterial growth incubated for 3 days by broth microdilution method; assay type: functional; conditions: 72 h, time 3 day
[8] = tested on: Mycobacterium abscessus subsp. abscessus; assay: Upregulation of RecA promoter activity in P4C resistant Mycobacterium abscessus subsp. abscessus ATCC 19977 mutant D91N assessed as bacterial DNA damage by luminescence assay; assay type: functional; conditions: time 3.0 day
[9] = tested on: Mycobacterium abscessus subsp. abscessus; assay: Upregulation of RecA promoter activity in Mycobacterium abscessus subsp. abscessus ATCC 19977 assessed as bacterial DNA damage by luminescence assay; assay type: functional
[10] = molecular target: Voltage-gated inwardly rectifying potassium channel KCNH2 (Homo sapiens, UniProt Q12809); assay: Inhibition of human ERG; assay type: toxicity
Chain of Voltage-gated inwardly rectifying potassium channel KCNH2 (Q12809 whole entry): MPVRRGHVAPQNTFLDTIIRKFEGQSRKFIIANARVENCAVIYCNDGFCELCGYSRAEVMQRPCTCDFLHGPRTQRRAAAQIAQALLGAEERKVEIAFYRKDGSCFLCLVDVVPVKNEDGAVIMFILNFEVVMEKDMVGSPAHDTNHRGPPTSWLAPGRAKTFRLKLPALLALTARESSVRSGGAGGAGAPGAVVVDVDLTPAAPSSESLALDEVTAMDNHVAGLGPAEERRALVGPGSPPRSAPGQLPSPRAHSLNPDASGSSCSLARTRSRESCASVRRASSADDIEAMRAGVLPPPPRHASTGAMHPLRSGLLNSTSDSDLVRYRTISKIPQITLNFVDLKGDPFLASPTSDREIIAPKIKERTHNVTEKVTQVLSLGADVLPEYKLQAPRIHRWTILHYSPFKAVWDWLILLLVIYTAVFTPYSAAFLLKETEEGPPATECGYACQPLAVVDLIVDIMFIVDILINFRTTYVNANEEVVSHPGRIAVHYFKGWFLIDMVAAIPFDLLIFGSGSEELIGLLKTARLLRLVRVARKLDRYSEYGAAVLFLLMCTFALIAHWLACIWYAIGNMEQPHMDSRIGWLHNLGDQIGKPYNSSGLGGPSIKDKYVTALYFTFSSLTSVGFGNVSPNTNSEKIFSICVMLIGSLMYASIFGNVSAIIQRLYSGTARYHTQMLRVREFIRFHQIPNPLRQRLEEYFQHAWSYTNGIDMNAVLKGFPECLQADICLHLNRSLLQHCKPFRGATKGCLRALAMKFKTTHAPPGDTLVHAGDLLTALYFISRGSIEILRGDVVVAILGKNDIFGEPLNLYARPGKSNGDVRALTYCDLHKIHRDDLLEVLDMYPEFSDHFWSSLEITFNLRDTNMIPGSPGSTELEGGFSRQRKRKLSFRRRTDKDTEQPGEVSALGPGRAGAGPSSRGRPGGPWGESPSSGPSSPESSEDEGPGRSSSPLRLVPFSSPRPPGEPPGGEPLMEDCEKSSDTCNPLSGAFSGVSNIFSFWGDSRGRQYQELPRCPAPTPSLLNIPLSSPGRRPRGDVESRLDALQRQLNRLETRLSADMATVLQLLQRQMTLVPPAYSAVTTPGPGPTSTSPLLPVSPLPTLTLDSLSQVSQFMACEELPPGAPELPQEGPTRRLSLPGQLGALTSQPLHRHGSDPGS

| SMILES | IC50 [1] | MIC90 [2] | logP [3] | further results |
| --- | --- | --- | --- | --- |
| COc1ccc2nccc(NC(=O)C3CCN(CCc4ccc(C(F)(F)F)cc4)CC3)c2c1 | 6000 nM | 100 µM (≈ 45.7 µg/mL) | 3 |  |
| COc1ccc2nccc(NC(=O)C3CCN(CCc4ccc(OC(F)(F)F)cc4)CC3)c2n1 |  | 100 µM (≈ 47.4 µg/mL) | 4 |  |
| COc1ccc2nccc(NC(=O)C3CCN(CCc4cc(F)cc(F)c4)CC3)c2n1 |  | 50 µM (≈ 21.3 µg/mL) | 2.3 |  |
| COc1ccc2cccc(NC(=O)C3CCN(CCc4ccc(C(F)(F)F)cc4)CC3)c2n1 | 3000 nM | 3.12 µM (≈ 1.43 µg/mL) | 3.6 | Activity (A-375): inactive; Activity (HT-29): inactive; Activity (MCF7): inactive; Activity (FaDu): inactive; Activity (NIH3T3): Non-Toxic; Activity (HEK293): Non-Toxic |
| COc1ccc2nccc(NC(=O)CC3CCN(Cc4ccc(C(F)(F)F)cc4)CC3)c2n1 | 40000 nM | 100 µM (≈ 45.8 µg/mL) | 2.8 |  |
| COc1ccc2nccc(NC(=O)C3CCN(CCc4ccc(F)cc4)CC3)c2n1 |  | 50 µM (≈ 20.4 µg/mL) | 2.1 |  |
| COc1ccc2nccc(NC(=O)[C@H]3CC[C@H](NCc4ccc(C(F)(F)F)cc4)CC3)c2n1 | 1500 nM | 0.4 µM (≈ 0.183 µg/mL) | 3.3 | MIC90 [4]: 0.4 µM (≈ 0.183 µg/mL); MIC90 [5]: 1 µM (≈ 0.458 µg/mL); MIC90 [6]: 1.2 µM (≈ 0.55 µg/mL); MIC90 [7]: 2 µM (≈ 0.917 µg/mL); MIC90 (Mycobacterium avium): 2 µM (≈ 0.917 µg/mL); MIC90 (Staphylococcus aureus): 0.7 µM (≈ 0.321 µg/mL); Activity (A-375): inactive; Activity (HT-29): inactive; Activity (MCF7): inactive; Activity (FaDu): inactive; Activity (NIH3T3): Non-Toxic; Activity (HEK293): Non-Toxic |
| O=c1ccc2ncc(=O)n3c2n1C[C@H]3CN1CCC(NCc2cc3c(cn2)OCCC3)CC1 [GEPOTIDACIN] | 2000 nM | 10 µM (≈ 4.49 µg/mL) | 0.1 | Activity [8]: inactive; Activity [9]: Active |
| COc1ccc2nccc(NC(=O)C3CCN(CCc4ccc(F)cc4F)CC3)c2n1 |  | 50 µM (≈ 21.3 µg/mL) | 2.3 |  |
| COc1ccc2nccc(NC(=O)C3CCN(CCc4ccc(Cl)cc4)CC3)c2n1 | 3000 nM | 12 µM (≈ 5.1 µg/mL) | 2.6 | Activity (A-375): inactive; Activity (HT-29): inactive; Activity (MCF7): inactive; Activity (FaDu): inactive |
| COc1ccc2nccc(NS(=O)(=O)C3CCN(CCc4ccc(C(F)(F)F)cc4)CC3)c2n1 |  | 100 µM (≈ 49.5 µg/mL) | 2.4 |  |
| COc1cnc2ccc(=O)n(CCN3CCC(NCc4ccc(Cl)c(Cl)c4)CC3)c2c1 |  |  |  | MIC [2]: < 0.02 µM; IC50 [10]: 1320 nM |
| O=C1COc2ccc(CNC3CCN(CCn4c(=O)ccc5ccc(Oc6ccccn6)nc54)CC3)nc2N1 | 110 nM |  |  | MIC [2]: 0.06 µM (≈ 0.0317 µg/mL); IC50 [10]: 155000 nM |
